In patent US20090311217A1, “3-SUBSTITUTED-1H-INDOLE COMPOUNDS, THEIR USE AS MTOR KINASE AND PI3 KINASE INHIBITORS, AND THEIR SYNTHESES” (priority 2008, published 2009):
Where two headings read alike, the source gives them in different places.

How the values were obtained:
Type in all cases: biochemical
PI3K-delta = PI3K-delta (Homo sapiens, UniProt O00329); assay: PI3K-delta fluorescence polarization assay
PI3K-gamma = PI3K-gamma (Homo sapiens, UniProt P48736); assay: PI3K-gamma fluorescence polarization assay; conditions: PI3Kγ Avg. IC50
Chain of PI3K-gamma (P48736 whole entry, species assumed, the tested form may be a part): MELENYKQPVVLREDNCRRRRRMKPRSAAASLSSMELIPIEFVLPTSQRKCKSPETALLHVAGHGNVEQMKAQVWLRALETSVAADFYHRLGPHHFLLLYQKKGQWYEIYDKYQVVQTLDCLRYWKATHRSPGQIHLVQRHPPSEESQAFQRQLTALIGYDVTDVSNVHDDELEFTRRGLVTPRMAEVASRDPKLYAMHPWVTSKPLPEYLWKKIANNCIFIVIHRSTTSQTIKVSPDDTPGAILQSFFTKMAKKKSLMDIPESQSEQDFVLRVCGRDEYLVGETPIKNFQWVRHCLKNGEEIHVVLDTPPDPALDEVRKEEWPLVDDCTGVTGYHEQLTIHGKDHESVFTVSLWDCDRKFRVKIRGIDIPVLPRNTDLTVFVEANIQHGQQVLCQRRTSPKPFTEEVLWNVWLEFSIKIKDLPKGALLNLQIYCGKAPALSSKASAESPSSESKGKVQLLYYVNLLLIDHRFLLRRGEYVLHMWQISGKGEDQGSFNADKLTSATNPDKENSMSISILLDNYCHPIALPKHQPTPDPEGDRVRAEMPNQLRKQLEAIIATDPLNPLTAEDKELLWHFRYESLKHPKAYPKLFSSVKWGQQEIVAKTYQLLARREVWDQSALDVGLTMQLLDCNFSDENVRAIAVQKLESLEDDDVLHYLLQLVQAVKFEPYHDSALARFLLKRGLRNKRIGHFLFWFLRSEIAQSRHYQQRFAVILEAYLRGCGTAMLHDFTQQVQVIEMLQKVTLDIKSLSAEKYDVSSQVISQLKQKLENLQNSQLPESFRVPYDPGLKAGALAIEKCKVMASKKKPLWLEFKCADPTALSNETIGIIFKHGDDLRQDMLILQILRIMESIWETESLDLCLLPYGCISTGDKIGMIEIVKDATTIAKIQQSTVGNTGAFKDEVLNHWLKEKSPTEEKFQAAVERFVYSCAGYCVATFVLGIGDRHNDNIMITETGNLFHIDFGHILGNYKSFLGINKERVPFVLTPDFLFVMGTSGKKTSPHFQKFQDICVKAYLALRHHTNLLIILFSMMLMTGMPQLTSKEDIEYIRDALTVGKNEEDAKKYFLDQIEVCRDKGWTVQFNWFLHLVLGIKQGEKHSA
Outline: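 FP competition read-out: PIP3 produced displaces BODIPY-TMR-IP4 (5 nM) from GST-GRP1 PH domain (100 nM). Kinase step: 5 ng enzyme, 2.5 μM diC8-PIP2, 25 μM ATP, pH 7 HEPES/MgCl2, 1 h, 25° C; EDTA stop.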

PI3K-beta = PI3K-beta (Homo sapiens, UniProt P42338); assay: PI3K-beta fluorescence polarization assay; conditions: read-out: PI3Kβ Avg. IC50
Chain of PI3K-beta (P42338 whole entry, species assumed): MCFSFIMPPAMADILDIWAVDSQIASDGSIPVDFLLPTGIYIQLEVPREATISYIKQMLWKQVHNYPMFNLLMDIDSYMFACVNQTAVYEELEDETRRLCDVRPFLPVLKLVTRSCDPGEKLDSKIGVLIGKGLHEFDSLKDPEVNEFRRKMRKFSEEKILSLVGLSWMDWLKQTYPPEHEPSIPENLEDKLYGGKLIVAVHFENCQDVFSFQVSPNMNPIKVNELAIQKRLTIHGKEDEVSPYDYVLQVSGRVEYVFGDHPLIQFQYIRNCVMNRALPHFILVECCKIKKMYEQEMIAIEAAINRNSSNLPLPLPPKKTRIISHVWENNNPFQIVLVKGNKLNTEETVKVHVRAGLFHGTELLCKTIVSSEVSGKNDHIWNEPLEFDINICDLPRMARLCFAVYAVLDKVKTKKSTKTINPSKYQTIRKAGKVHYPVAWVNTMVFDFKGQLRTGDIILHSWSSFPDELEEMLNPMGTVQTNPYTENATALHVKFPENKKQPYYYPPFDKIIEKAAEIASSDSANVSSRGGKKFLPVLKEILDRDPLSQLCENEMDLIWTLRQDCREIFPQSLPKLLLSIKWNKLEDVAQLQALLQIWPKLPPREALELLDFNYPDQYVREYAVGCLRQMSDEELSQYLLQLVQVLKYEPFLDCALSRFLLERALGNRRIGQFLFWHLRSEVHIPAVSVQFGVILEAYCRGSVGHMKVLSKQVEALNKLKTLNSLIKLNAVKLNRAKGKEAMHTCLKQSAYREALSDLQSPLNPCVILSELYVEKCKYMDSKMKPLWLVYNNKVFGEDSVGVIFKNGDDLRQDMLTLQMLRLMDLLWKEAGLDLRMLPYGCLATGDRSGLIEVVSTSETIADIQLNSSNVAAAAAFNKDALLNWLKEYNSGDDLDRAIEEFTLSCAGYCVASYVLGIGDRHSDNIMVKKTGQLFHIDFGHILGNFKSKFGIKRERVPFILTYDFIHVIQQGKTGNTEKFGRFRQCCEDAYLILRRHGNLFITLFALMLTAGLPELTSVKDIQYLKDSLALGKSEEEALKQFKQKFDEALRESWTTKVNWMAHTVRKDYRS
Chain of PI3K-beta (P27986 whole entry partner, species assumed): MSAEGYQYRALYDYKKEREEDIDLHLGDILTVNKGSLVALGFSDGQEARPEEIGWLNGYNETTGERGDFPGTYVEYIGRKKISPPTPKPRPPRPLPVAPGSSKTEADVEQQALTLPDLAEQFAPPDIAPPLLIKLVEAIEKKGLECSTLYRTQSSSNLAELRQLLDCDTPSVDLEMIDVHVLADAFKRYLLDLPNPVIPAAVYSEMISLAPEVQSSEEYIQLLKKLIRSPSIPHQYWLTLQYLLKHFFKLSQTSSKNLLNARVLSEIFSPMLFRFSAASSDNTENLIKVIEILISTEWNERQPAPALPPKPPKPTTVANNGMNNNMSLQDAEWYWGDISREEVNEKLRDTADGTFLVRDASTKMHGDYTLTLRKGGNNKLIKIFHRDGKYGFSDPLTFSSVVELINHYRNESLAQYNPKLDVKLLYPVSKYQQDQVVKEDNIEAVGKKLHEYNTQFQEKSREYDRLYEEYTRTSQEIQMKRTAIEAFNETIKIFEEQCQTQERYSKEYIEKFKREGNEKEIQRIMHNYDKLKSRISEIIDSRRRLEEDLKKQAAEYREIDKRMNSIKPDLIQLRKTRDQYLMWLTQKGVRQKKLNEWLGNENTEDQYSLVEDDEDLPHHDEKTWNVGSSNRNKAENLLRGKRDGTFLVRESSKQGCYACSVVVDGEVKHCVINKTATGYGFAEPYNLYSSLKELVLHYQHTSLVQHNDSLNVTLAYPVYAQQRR
Method: PI3K-Alpha, PI3K-Beta, PI3K-Gamma, and PI3K-delta Fluorescence Polarization Assay Protocols
PI3-Kinase reactions were performed in 5 mM HEPES, pH 7, 2.5 mM MgCl2, and 25 μM ATP, with diC8-PI(4,5)P2 (Echelon, Salt Lake City Utah) as substrate. Nunc 384-well black polypropylene fluorescent plates were used for PI3K assays. Reactions were quenched by the addition of EDTA to a final concentration of 10 mM. Final reaction volumes were 10 μl. For evaluation of PI3K inhibitors, 5 ng of enzyme (PI3K-alpha, beta, gamma, or delta) and 2.5 μM of substrate was used per […] reaction volume, and inhibitor concentrations ranged from 100 μM to 20 μM; the final level of DMSO in reactions never exceeded 2%. Reactions were allowed to proceed for one hour at 25° C. After 1 hour, GST-tagged GRP1 (general receptor for phosphoinositides) PH domain fusion protein was added to a final concentration of 100 nM, and BODIPY-TMRI(1,3,4,5)P4 (Echelon) was also added to a final concentration of 5 nM. Final sample volumes were 25 μl with a final DMSO concentration of 0.8%. Assay Plates were read on Perkin-Elmer Envision plate readers with appropriate filters for Tamra [BODIPY-TMRI(1,3,4,5)P4]. Data obtained were used to calculate enzymatic activity and enzyme inhibition by inhibitor compounds.

human TOR = target: T1, human TOR (Homo sapiens, UniProt P42345); assay: mTOR enzyme assay (DELFIA, His6-S6K substrate); conditions: read-out: mTOR Kinase Avg. IC50
T1 construct: FLAG

PI3K-alpha = PI3K-alpha (Homo sapiens, UniProt P42336); assay: PI3K-alpha fluorescence polarization assay
Chain of PI3K-alpha (P42336 whole entry, species assumed): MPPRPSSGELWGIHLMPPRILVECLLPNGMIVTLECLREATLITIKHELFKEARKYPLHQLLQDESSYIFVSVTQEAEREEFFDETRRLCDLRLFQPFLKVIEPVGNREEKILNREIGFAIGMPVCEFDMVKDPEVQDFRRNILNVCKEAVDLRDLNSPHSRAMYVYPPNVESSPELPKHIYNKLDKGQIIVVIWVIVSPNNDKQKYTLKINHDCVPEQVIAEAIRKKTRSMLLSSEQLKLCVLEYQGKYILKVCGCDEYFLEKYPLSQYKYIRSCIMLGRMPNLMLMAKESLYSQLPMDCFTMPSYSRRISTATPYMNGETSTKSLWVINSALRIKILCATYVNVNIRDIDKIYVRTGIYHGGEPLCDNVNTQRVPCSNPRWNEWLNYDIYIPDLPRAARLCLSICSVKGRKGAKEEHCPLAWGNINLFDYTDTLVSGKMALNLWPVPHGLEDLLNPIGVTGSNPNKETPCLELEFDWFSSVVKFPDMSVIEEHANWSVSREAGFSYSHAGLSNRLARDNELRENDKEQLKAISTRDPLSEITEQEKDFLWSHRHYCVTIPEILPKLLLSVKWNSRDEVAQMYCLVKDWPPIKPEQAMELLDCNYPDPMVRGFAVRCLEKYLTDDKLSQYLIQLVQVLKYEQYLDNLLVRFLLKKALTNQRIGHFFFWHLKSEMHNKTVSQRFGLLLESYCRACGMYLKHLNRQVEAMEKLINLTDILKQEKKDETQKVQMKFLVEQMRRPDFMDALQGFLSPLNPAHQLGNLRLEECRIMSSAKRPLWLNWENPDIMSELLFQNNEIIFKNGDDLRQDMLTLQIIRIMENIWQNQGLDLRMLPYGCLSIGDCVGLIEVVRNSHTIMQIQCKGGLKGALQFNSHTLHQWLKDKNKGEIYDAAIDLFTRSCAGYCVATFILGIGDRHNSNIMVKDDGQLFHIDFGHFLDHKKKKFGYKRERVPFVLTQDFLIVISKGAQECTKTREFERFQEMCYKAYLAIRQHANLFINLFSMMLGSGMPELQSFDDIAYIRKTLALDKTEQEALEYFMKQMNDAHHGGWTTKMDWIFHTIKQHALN
Chain of PI3K-alpha (P27986 whole entry partner, species assumed): as the sequence (P27986 whole entry partner, species assumed) above

Chain of PI3K-delta (O00329 whole entry, species assumed): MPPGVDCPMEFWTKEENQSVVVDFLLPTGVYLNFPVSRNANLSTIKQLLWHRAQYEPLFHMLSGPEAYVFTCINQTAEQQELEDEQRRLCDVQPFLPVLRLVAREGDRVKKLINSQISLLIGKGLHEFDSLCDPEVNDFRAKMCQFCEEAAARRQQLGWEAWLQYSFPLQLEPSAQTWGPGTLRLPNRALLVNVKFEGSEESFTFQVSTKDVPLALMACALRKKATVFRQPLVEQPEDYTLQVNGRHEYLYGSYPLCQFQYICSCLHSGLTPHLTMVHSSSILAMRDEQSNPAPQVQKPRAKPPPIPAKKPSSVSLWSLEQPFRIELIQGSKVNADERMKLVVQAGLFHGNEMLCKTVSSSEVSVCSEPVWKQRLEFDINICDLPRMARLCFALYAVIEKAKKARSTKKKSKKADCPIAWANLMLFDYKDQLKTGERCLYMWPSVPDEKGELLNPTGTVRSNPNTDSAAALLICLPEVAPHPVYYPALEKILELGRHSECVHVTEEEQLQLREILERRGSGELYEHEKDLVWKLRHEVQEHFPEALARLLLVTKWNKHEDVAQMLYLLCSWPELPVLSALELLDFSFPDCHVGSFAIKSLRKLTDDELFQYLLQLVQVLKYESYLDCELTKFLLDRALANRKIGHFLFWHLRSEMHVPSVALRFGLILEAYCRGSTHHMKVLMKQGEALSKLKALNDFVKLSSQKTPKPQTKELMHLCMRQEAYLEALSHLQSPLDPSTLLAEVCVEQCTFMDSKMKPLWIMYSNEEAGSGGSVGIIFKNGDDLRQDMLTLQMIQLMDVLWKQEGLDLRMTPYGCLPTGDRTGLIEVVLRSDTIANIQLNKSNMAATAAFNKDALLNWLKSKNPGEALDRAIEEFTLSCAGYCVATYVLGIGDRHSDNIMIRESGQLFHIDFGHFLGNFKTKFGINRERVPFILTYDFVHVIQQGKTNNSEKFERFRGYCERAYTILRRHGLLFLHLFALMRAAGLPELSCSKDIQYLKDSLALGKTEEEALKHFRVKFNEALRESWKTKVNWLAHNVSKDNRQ
Chain of PI3K-delta (P27986 whole entry partner, species assumed): as the sequence (P27986 whole entry partner, species assumed) above

Structure (SMILES)	IC50 (PI3K-delta; read-out: PI3Kδ Avg. IC50) [µM]	IC50 (PI3K-gamma) [µM]	IC50 (PI3K-beta) [µM]	IC50 (human TOR) [µM]	IC50 (PI3K-alpha; read-out: PI3Kα Avg. IC50) [µM]	IC50 (PI3K-alpha; PI3Kα Avg. IC50) [µM]	IC50 (PI3K-delta) [µM]
O=C1/C(=C/c2c(-c3ccccc3)[nH]c3ccccc23)Oc2c1ccc(O)c2O [Example 53, (2Z)-6,7-dihydroxy-2-[(2-phenyl-1H-indol-3-yl)methylene]-1-benzofuran-3(2H)-one]	0.0703	1.47	0.132	> 30	0.182		
O=C1/C(=C/c2c(-c3ccc(Cl)cc3)[nH]c3ccccc23)Oc2c1ccc(O)c2O [Example 54, (2Z)-2-{[2-(4-chlorophenyl)-1H-indol-3-yl]methylene}-6,7-dihydroxy-1-benzofuran-3(2H)-one]	0.0335	1.06	0.098	9.6	0.111		
O=C1/C(=C/c2c(-c3ccc4ccccc4c3)[nH]c3ccccc23)Oc2c1ccc(O)c2O [Example 55, (2Z)-6,7-dihydroxy-2-{[2-(2-naphthyl)-1H-indol-3-yl]methylene}-1-benzofuran-3(2H)-one]	0.032	0.716	0.072	10	0.0727		
O=C1/C(=C/c2c(-c3ccc(F)cc3)[nH]c3ccccc23)Oc2c1ccc(O)c2O [Example 56, (2Z)-2-{[2-(4-fluorophenyl)-1H-indol-3-yl]methylene}-6,7-dihydroxy-1-benzofuran-3(2H)-one]	0.107	1.95	0.251	> 20	0.19		
COc1ccc2[nH]cc(/C=C3\Oc4cc(O)cc(O)c4C3=O)c2c1 [Example 59, (2Z)-4,6-dihydroxy-2-[(5-methoxy-1H-indol-3-yl)methylene]-1-benzofuran-3(2H)-one]	0.07	0.269	0.173	0.265		0.0302	
Cc1[nH]c2ccc(Br)cc2c1/C=C1\Oc2cc(O)cc(O)c2C1=O [Example 61, (2Z)-2-[(5-bromo-2-methyl-1H-indol-3-yl)methylene]-4,6-dihydroxy-1-benzofuran-3(2H)-one]	0.374	2.22	0.567	0.19		0.179	
COc1ccc2[nH]c(C)c(C=C3Oc4cc(O)cc(O)c4C3=O)c2c1 [Example 73, 4,6-dihydroxy-2-[(5-methoxy-2-methyl-1H-indol-3-yl)methylene]-1-benzofuran-3(2H)-one]	0.0058	0.025	0.008	0.0027	0.0027		
COc1ccc2c(c1)c(C=C1Oc3cc(O)cc(O)c3C1=O)cn2C [Example 84, 4,6-dihydroxy-2-[(5-methoxy-1-methyl-1H-indol-3-yl)methylene]-1-benzofuran-3(2H)-one]		0.586	0.547	0.0653		0.106	0.11
COc1ccc2[nH]c(C)c(C=C3Oc4cccc(O)c4C3=O)c2c1 [Example 86, 4-hydroxy-2-[(5-methoxy-2-methyl-1H-indol-3-yl)methylene]-1-benzofuran-3(2H)-one]	0.047	0.355	0.098	0.0848	0.184		
COc1ccc2c(c1)c(C=C1Oc3cc(O)cc(O)c3C1=O)c(C)n2CCCCl [Example 88, 2-{[1-(3-chloropropyl)-5-methoxy-2-methyl-1H-indol-3-yl]methylene}-4,6-dihydroxy-1-benzofuran-3(2H)-one]	0.0035	0.0737	0.052	< 0.021	0.0097		
COc1ccc2c(c1)c(C=C1Oc3cc(O)cc(O)c3C1=O)c(C)n2C [Example 89, 4,6-dihydroxy-2-[(5-methoxy-1,2-dimethyl-1H-indol-3-yl)methylene]-1-benzofuran-3(2H)-one]	0.008	0.0543	0.019	0.0035		0.0069	
COc1ccc2[nH]c(-c3cccnc3)c(C=C3Oc4cc(O)cc(O)c4C3=O)c2c1 [Example 91, 4,6-dihydroxy-2-[(5-methoxy-2-pyridin-3-yl-1H-indol-3-yl)methylene]-1-benzofuran-3(2H)-one]	0.0018	0.0095	0.0055	< 0.05	< 0.0022		
Cc1c(C=C2Oc3cc(O)cc(O)c3C2=O)c2ccccc2n1CCCCCl [Example 94, 2-{[1-(4-chlorobutyl)-2-methyl-1H-indol-3-yl]methylene}-4,6-dihydroxy-1-benzofuran-3(2H)-one]	1.02	5.86	0.671	> 5	2.24		
COc1ccc2c(c1)c(C=C1Oc3cc(O)cc(O)c3C1=O)c(C)n2CCCN1CCN(C)CC1 [Example 95, 4,6-dihydroxy-2-({5-methoxy-2-methyl-1-[3-(4-methylpiperazin-1-yl)propyl]-1H-indol-3-yl}methylene)-1-benzofuran-3(2H)-one]	0.002	0.402	0.027	0.153		0.0147	
COc1ccc2c(c1)c(C=C1Oc3cc(O)cc(O)c3C1=O)c(C)n2CCCCN1CCN(C)CC1 [Example 96, 4,6-dihydroxy-2-({5-methoxy-2-methyl-1-[4-(4-methylpiperazin-1-yl)butyl]-1H-indol-3-yl}methylene)-1-benzofuran-3(2H)-one]	0.002	0.238	0.01	< 0.031	0.0113		
COc1ccc2c(c1)c(C=C1Oc3cc(O)cc(O)c3C1=O)c(C)n2CCCCN1CCOCC1 [Example 97, 4,6-dihydroxy-2-{[5-methoxy-2-methyl-1-(4-morpholin-4-ylbutyl)-1H-indol-3-yl]methylene}-1-benzofuran-3(2H)-one]	0.0009	0.139	0.009	< 0.047	0.0087		
COc1ccc2c(c1)c(C=C1Oc3cc(O)cc(O)c3C1=O)c(C)n2CCCCN1CCN(CCO)CC1 [Example 98, 4,6-dihydroxy-2-[(1-{4-[4-(2-hydroxyethyl)piperazin-1-yl]butyl}-5-methoxy-2-methyl-1H-indol-3-yl)methylene]-1-benzofuran-3(2H)-one]	0.001	0.248	0.0105	0.0585	0.0094		
COc1ccc2c(c1)c(C=C1Oc3cc(O)cc(O)c3C1=O)c(C)n2CCCCN1CCC(N(C)C)C1 (centres unmarked) [Example 99, 2-[(1-{4-[3-(dimethylamino)pyrrolidin-1-yl]butyl}-5-methoxy-2-methyl-1H-indol-3-yl)methylene]-4,6-dihydroxy-1-benzofuran-3(2H)-one]	0.002	0.331	0.008	0.0725	0.0083		
COc1ccc2c(c1)c(C=C1Oc3cc(O)cc(O)c3C1=O)c(C)n2CCCCN1CCN(CCN2CCOCC2)CC1 [Example 100, 4,6-dihydroxy-2-[(5-methoxy-2-methyl-1-{4-[4-(2-morpholin-4-ylethyl)piperazin-1-yl]butyl}-1H-indol-3-yl)methylene]-1-benzofuran-3(2H)-one]	0.003	0.283	0.0125	0.0555	0.012		
COc1ccc2c(c1)c(C=C1Oc3cc(O)cc(O)c3C1=O)c(C)n2CCCCN(C)C [Example 101, 2-({1-[4-(dimethylamino)butyl]-5-methoxy-2-methyl-1H-indol-3-yl}methylene)-4,6-dihydroxy-1-benzofuran-3(2H)-one]	0.001	0.377	0.0065	0.046	0.0053		
COc1ccc2c(c1)c(C=C1Oc3cc(O)cc(O)c3C1=O)c(C)n2CCCN1CCOCC1 [Example 102, 4,6-dihydroxy-2-{[5-methoxy-2-methyl-1-(3-morpholin-4-ylpropyl)-1H-indol-3-yl]methylene}-1-benzofuran-3(2H)-one]	0.0019	0.0755	0.045	< 0.025	0.0085		
COc1ccc2c(c1)c(C=C1Oc3cc(O)cc(O)c3C1=O)c(C)n2CCCN1CCN(CCO)CC1 [Example 103, 4,6-dihydroxy-2-[(1-{3-[4-(2-hydroxyethyl)piperazin-1-yl]propyl}-5-methoxy-2-methyl-1H-indol-3-yl)methylene]-1-benzofuran-3(2H)-one]	0.002	0.108	0.022	0.108	0.0066		
